Each structure is given as a SMILES string.

This series is described as follows: Heating of Lamotrigine Solvates/Hydrates (annealing; crystal form afterwards). The format is physicochemical. The settings on record: resulting crystal form. As to the method: All X-ray powder diffraction patterns were obtained by methods known in the art. One method employs the use of a Philips X-Ray powder diffractometer, Goniometer model 1050/70 at a scanning speed of 20 per minute. Another method employs the use of a Scintag X'TRA X-ray powder diffractometer, equipped with a solid state Si(Li) detector thermoelectrically cooled, at a scanning speed of 30 min.^−1 Scanning range […] two-theta. Copper radiation of 1.5418 Å was used. According to one embodiment, the present invention provides a process for preparing lamotrigine form A including heating lamotrigine solvates at temperatures elevated enough to remove all the solvent from the crystal, usually above 100° C. for a period of about 2 hours, preferably above 110° C. for a period of about 1 hour, more preferably at about 150° C. for a period of about ½ hour. [table]

As for `Nc1nnc(-c2cccc(Cl)c2Cl)c(N)n1` [J ispropanolate, 6-(2,3-Dichlorophenyl)-1,2,4-triazine-3,5-diamine], the “Crystal form after annealing at 80° C. 60 min” value (solid heated at 80° C. for 60 min) is on record as “Amorphous”. Consider `Nc1nnc(-c2cccc(Cl)c2Cl)c(N)n1` [C DMF monosolvate, 6-(2,3-Dichlorophenyl)-1,2,4-triazine-3,5-diamine], for which the “Crystal form after annealing at 110° C. 45 min” value (solid heated at 110° C. for 45 min) was “A + P”.

For the origin of these results see patent US6861426B2, “Crystal forms of lamotrigine and processes for their preparations” (Teva Pharmaceutical Industries Ltd., priority 2001, dated 2005).
